Source: patent publication US8883782B2, “Spiro-tetracyclic ring compounds as beta-secretase modulators and methods of use” (Amgen Inc., priority 2010, dated 2014)
Read-outs that look alike come from different tables or passages of the source.

Key:
[1] = target: Beta Secretase enzyme (BACE) (Homo sapiens, UniProt P56817); assay: In vitro enzymatic BACE FRET (fluorescence resonance energy transfer) assay; assay type: biochemical; conditions: average IC50, enzyme assay; read-out: BACE 1 FRET assay
Beta Secretase enzyme (BACE), sequence (P56817 46-501, species assumed): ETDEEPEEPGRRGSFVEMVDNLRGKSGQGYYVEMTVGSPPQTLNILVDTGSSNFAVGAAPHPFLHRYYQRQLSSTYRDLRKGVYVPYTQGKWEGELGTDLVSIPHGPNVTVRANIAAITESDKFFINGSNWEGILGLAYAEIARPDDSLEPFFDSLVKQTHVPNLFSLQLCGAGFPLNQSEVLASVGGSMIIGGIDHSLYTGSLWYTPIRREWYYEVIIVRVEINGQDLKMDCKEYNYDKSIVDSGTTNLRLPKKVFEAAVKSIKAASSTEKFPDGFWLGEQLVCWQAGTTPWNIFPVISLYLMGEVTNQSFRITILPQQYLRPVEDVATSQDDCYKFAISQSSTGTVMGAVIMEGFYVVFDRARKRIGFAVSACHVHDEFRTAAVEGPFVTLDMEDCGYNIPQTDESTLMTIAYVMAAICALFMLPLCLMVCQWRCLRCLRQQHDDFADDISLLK
In short: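 Cleavage of a 50 nM fluorophore/quencher peptide FRET substrate by BACE for 1 h in 0.05 M acetate pH 4.2, 10% DMSO, 100 uM genapol. Reaction stopped with Tris to neutral pH before fluorescence reading.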

[2] = test system: Aβ40 in conditioned medium of cells stably expressing Amyloid Precursor Protein (APP); assay: In vitro BACE cell-based assay (Aβ40 in conditioned medium, sandwich ELISA); conditions: read-out: HEK cell assay
In short: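 Step two: 10-point compound titration added, starting 100 μM or 10 μM, 0.1% DMSO. Step three: medium Aβ40 measured by ELISA, capture 3 h and detection 2 h at 4° C, TRF read.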

[3] = Homo sapiens, HEK293, average IC50
[4] = Homo sapiens, HEK293, average IC50, HEK cells

Compound | IC50 [1] [nM] | IC50 [2, 3] [nM] | IC50 ([2]; average IC50) [nM] | IC50 [2, 4] [nM] | IC50 ([2]; average IC50, HEK cells) [nM]
CC(C)(O)C#Cc1cncc(-c2ccc3c(c2)[C@@]2(COC(N)=N2)c2cc(-c4ccnc(F)c4)ncc2O3)c1 [Example 817, 4-(5-((5S)-2′-amino-3-(2-fluoro-4-pyridinyl)spiro[chromeno[2,3-c]pyridine-5,4′-[1,3]oxazol]-7-yl)-3-pyridinyl)-2-methyl-3-butyn-2-ol] | 13.5 | 1480 |  |  | 
NC1=N[C@@]2(CO1)c1cc(-c3cncc(Cl)c3)ccc1Oc1c(F)cc(N3CCOCC3)cc12 [Example 208, (4S)-7′-(5-chloro-3-pyridinyl)-4′-fluoro-2′-(4-morpholinyl)spiro[1,3-oxazole-4,9′-xanthen]-2-amine] | 0.8 | 3.8 |  |  | 
(4R)-4′-fluoro-2′-methoxy-7′-(5-pyrimidinyl)spiro[1,3-thiazole-4,9′-xanthen]-2-amine [Example 215] | 8.1 |  | 113 |  | 
Cc1ccnn1-c1cc(F)c2c(c1)[C@]1(COC(N)=N1)c1cc(-c3cccnc3)ccc1O2 [Example 634, (4S)-4′-fluoro-2′-(5-methyl-1H-pyrazol-1-yl)-7′-(3-pyridinyl)spiro[1,3-oxazole-4,9′-xanthen]-2-amine] | 30.3 |  |  | 154 | 
CC1(C)C[C@H](c2cnc3c(c2)[C@]2(COC(N)=N2)c2cc(-c4cccnc4F)ccc2O3)CCO1 [Example 469, (5S)-3-((4R)-2,2-dimethyltetrahydro-2H-pyran-4-yl)-7-(2-fluoro-3-pyridinyl)spiro[chromeno[2,3-b]pyridine-5,4′-[1,3]oxazol]-2′-amine] | 2.8 |  |  |  | 13.9
CC1(COc2cc3c(cc2F)Oc2ccc(-c4cncc(Cl)c4)cc2[C@@]32COC(N)=N2)COC1 [Example 333, (4S)-7′-(5-chloro-3-pyridinyl)-3′-fluoro-2′-((3-methyl-3-oxetanyl)methoxy)spiro[1,3-oxazole-4,9′-xanthen]-2-amine] | 2.4 | 21.8 |  |  | 
NC1=N[C@@]2(CO1)c1cc(-c3cccnc3F)ccc1Oc1c(F)cc(-c3ccnc(F)c3)cc12 [Example 451, (4S)-4′-fluoro-7′-(2-fluoro-3-pyridinyl)-2′-(2-fluoro-4-pyridinyl)spiro[1,3-oxazole-4,9′-xanthen]-2-amine] | 0.5 |  |  | 10.3 | 
COc1ccc2c(c1)C1(COC(N)=N1)c1cc(N3CCC(F)(F)C3)ncc1O2 (centres unmarked) [Example 431, 3-(3,3-difluoro-1-pyrrolidinyl)-7-methoxyspiro[chromeno[2,3-c]pyridine-5,4′-[1,3]oxazol]-2′-amine] | 1730 |  |  | 10000 | 
Cc1ccnc(Oc2ccc3c(c2)[C@@]2(COC(N)=N2)c2cc(N4CCOCC4)cc(F)c2O3)c1 [Example 1059, (4S)-4′-fluoro-7′-((4-methyl-2-pyridinyl)oxy)-2′-(4-morpholinyl)spiro[1,3-oxazole-4,9′-xanthen]-2-amine] | 33.9 | 609 |  |  | 
NC1=N[C@@]2(CO1)c1cc(-c3cncnc3)c(F)cc1Oc1c(F)cc(C3CCOCC3)cc12 [Example 1040, (4S)-3′,5′-difluoro-2′-(5-pyrimidinyl)-7′-(tetrahydro-2H-pyran-4-yl)spiro[1,3-oxazole-4,9′-xanthen]-2-amine] | 1.5 | 30 |  |  | 
Cc1cc(-c2cc3c(c(F)n2)Oc2ccc(-c4cccnc4F)cc2[C@@]32COC(N)=N2)on1 [Example 851, (5S)-1-fluoro-7-(2-fluoro-3-pyridinyl)-3-(3-methyl-5-isoxazolyl)spiro[chromeno[2,3-c]pyridine-5,4′-[1,3]oxazol]-2′-amine] | 0.8 |  |  | 8 | 
CC1(C#Cc2cc3c(c(F)n2)Oc2ccc(-c4cccnc4F)cc2C32COC(N)=N2)COC1 (centres unmarked) [Example 733, 1-fluoro-7-(2-fluoro-3-pyridinyl)-3-((3-methyl-3-oxetanyl)ethynyl)spiro[chromeno[2,3-c]pyridine-5,4′-[1,3]oxazol]-2′-amine] | 1.1 | 18 |  |  | 
COC1CN(c2cc(F)c3c(c2)[C@]2(COC(N)=N2)c2cc(-c4cccnc4F)ccc2O3)C1 [Example 281, (4S)-4′-fluoro-7′-(2-fluoro-3-pyridinyl)-2′-(3-methoxy-1-azetidinyl)spiro[1,3-oxazole-4,9′-xanthen]-2-amine] | 2 | 5.4 |  |  | 
NC1=N[C@@]2(CO1)c1cc(-c3cncnc3)ccc1Oc1cnc(N3CCC(F)(F)C3)cc12 [Example 540, (5S)-3-(3,3-difluoro-1-pyrrolidinyl)-7-(5-pyrimidinyl)spiro[chromeno[2,3-c]pyridine-5,4′-[1,3]oxazol]-2′-amine] | 0.8 |  |  | 7.2 | 
CC1(C)C[C@@H](c2cc3c(cn2)Oc2ccc(-c4cccnc4F)cc2[C@@]32COC(N)=N2)CCO1 [Example 378, (5S)-3-((4S)-2,2-dimethyltetrahydro-2H-pyran-4-yl)-7-(2-fluoro-3-pyridinyl)spiro[chromeno[2,3-c]pyridine-5,4′-[1,3]oxazol]-2′-amine] | 4.3 | 26.4 |  |  | 
CC#Cc1cncc(-c2ccc3c(c2)[C@@]2(COC(N)=N2)c2cc(Cl)nc(N4CCC(F)(F)C4)c2O3)c1 [Example 925, (5S)-3-chloro-1-(3,3-difluoro-1-pyrrolidinyl)-7-(5-(1-propyn-1-yl)-3-pyridinyl)spiro[chromeno[2,3-c]pyridine-5,4′-[1,3]oxazol]-2′-amine] | 24.6 |  |  | 547 | 
NC1=N[C@@]2(CO1)c1cc(-c3ccc(F)nc3)ccc1Oc1cnc(C3CCOCC3)cc12 [Example 363, (5S)-7-(6-fluoro-3-pyridinyl)-3-(tetrahydro-2H-pyran-4-yl)spiro[chromeno[2,3-c]pyridine-5,4′-[1,3]oxazol]-2′-amine] | 33.7 | 270 |  |  | 
CC#Cc1cncc(-c2ccc3c(c2)[C@@]2(COC(N)=N2)c2cc(C4=CCCOC4)nc(OC)c2O3)c1 [Example 836, (5S)-3-(5,6-dihydro-2H-pyran-3-yl)-1-methoxy-7-(5-(1-propyn-1-yl)-3-pyridinyl)spiro[chromeno[2,3-c]pyridine-5,4′-[1,3]oxazol]-2′-amine] | 0.5 | 4 |  |  | 
(6R)-4-((4S)-2-amino-4′-fluoro-7′-(2-fluoro-3-pyridinyl)spiro[1,3-oxazole-4,9′-xanthen]-2′-yl)-6-methyl-5,6-dihydro-2H-pyran-2-one, (6S)-4-((4S)-2-amino-4′-fluoro-7′-(2-fluoro-3-pyridinyl)spiro[1,3-oxazole-4,9′-xanthen]-2′-yl)-6-methyl-5,6-dihydro-2H-pyran-2-one [Example 803] | 0.8 |  | 15 |  | 
COC(C)(C)COc1cnc2c(c1)[C@@]1(COC(N)=N1)c1cc(-c3cc(Cl)ccc3F)ccc1O2 [Example 318, (5R)-7-(5-chloro-2-fluorophenyl)-3-(2-methoxy-2-methylpropoxy)spiro[chromeno[2,3-b]pyridine-5,4′-[1,3]oxazol]-2′-amine] | 367 | 1810 |  |  | 
NC1=N[C@@]2(CO1)c1cc(Oc3cc(Cl)ccn3)ccc1Oc1c(F)cc(N3CCOCC3)cc12 [Example 1062, (4S)-7′-((4-chloro-2-pyridinyl)oxy)-4′-fluoro-2′-(4-morpholinyl)spiro[1,3-oxazole-4,9′-xanthen]-2-amine] | 22.3 | 374 |  |  | 
NC1=N[C@]2(CS1)c1cc(Br)ccc1Oc1cnc(Cl)cc12 [Example 993, (5R)-7-bromo-3-chlorospiro[chromeno[2,3-c]pyridine-5,4′-[1,3]thiazol]-2′-amine] | 11600 | ≥ 10000 |  |  | 
